According to patent publication US11266616B2, “Compositions and methods for inhibiting kinase activity” (BRANDEIS UNIVERSITY, priority 2016, dated 2022):
Positions count from the first letter of the chain named. “Also recorded” adds a separate entry of the source. Where two headings read alike, the source gives them in different places.

Assays:
[1] = molecular target: T1, dephosphorylated Aurora A kinase (Homo sapiens, UniProt O14965); test: Isothermal titration calorimetry (ITC) binding to dephosphorylated Aurora A kinase
T1 construct: Codon-optimized Aurora A^122-403 in pET28a and untagged λPP in T7-7 plasmid were co-transformed in BL21(DE3) cells; inferred from pET28a and the NiNTA column) (cleaved yes); made in house; host or cells: E. coli BL21(DE3), co-expressed with lambda protein phosphatase
T1 sequence (O14965 122-403): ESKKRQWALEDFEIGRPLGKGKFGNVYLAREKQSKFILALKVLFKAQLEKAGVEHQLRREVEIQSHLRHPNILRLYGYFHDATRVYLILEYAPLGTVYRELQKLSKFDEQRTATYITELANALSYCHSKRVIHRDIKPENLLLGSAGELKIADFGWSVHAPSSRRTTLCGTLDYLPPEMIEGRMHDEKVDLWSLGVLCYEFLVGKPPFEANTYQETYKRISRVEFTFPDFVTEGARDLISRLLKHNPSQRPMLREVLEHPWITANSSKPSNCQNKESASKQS
Protocol: Titrations were carried out using Nano ITC isothermal titration calorimeter (TA Instruments) and analyzed via the NanoAnalyze software using the independent fit model. Injectant was added in 1 μl volume, every 180 s, with a constant stirring speed at 350 rpm and at 25° C. Prior to ITC titration, both protein and TPX2 or monobody were dialyzed/resuspended in ITC buffer (20 mM TrisHCl, 200 mM NaCl, 3% (vol/vol) glycerol, 1 mM TCEP, pH 7.50).

Aurora A kinase and TPX2 = molecular target: T2, Aurora A kinase and TPX2 (Homo sapiens, UniProt O14965, T288V); test: Kemptide phosphorylation by dephosphorylated Aurora A kinase and TPX2 with increasing PS48 (TPX2 competition); assay type: biochemical; settings: 1 μM A122-403 T288V, 100 μM TPX2 1-45, 1 mM kemptide; FIGS. 28A-28B
T2 construct: 1 μM A^122-403 T288V, 100 μM TPX2^1-45 and 1 mM kemptide was used
T2 sequence (O14965 122-403 T288V): T1 sequence (O14965 122-403) with T167V
Protocol: FIGS. 28A-28B is a set of plots showing PS48 binds to the TPX2 binding site of Aurora A kinase and PS48 competes with TPX2 for binding to Aurora A kinase in vitro. FIG. 28A is a plot showing measurements of phosphorylation of kemptide (a peptide substrate for Aurora A kinase) when incubated with dephosphorylated Aurora A kinase and TPX2 and various increasing amounts of PS48. […] In the assays shown, 1 μM A^122-403 T288V, 100 μM TPX2^1-45 and 1 mM kemptide was used.
Aurora A, either phosphorylated/dephosphorylated wild type or mutant protein, was mixed with either AP ([…]) (SEQ ID NO: 5), Kemptide (LRRASLG) (SEQ ID NO: 6), or Lats2 ([…]) (SEQ ID NO: 7), in the absence or presence of 50 μM TPX2 in kinase buffer (20 mM TrisHCl, 200 mM NaCl, 3% [vol/vol] glycerol, 20 mM MgCl2, 1 mM TCEP, pH 7.50). These substrates comprise the consensus sequence for Aurora A ([R/K/N]—R—X—[S/T]-B where B is any hydrophobic residue with the exception of Pro) (Ferrari et al., 2005, Biochem. J., 390(Pt 1):293-302; Ohashi et al., 2006, Oncogene, 25:7691-7702; Sardon et al., 2010, EMBO Reports, 11:977-984). Peptides were ordered through Genscript. For HPLC-based activity assays the following protocol was used. The reaction was initiated with the addition of 5 mM ATP. […]

[2] = molecular target: T3, TPX2 binding site of Aurora A kinase (Homo sapiens, UniProt O14965); test: NMR titration (1H-15N HSQC) of TPX2, Aurora A and PS48; settings: FIGS. 27A-27C
T3 construct: Codon-optimized Aurora A^122-403 in pET28a and untagged λPP in T7-7 plasmid were co-transformed in BL21(DE3) cells; inferred from pET28a and the NiNTA column) (cleaved yes); made in house; host or cells: E. coli BL21(DE3) (Aurora A); TPX2 not described
T3 sequence (O14965 122-403): T1 sequence (O14965 122-403)
Protocol: FIGS. 27A-27C is a set of plots showing results of NMR titration showing that PS48 binds to the TPX2 binding site of Aurora A kinase. FIG. 27A is a plot showing ^1H-^15N heteronuclear single quantum coherence (HSQC) spectra of selected titration points (250 μM TPX2, 250 μM TPX2+100 μM Aurora A, and 250 μM TPX2+100 μM Aurora A+1.5 mM PS48). A magnified view showing separation of peaks is indicated by an arrow. FIG. 27B is a plot showing changes in chemical shift (Δδ) at 200 μM TPX2 and varying concentrations of Aurora A. FIG. 27C is a plot showing changes in chemical shift (Δδ) at 200 μM TPX2 and 100 μM Aurora A and varying concentrations of PS48.

Which results are given for `O=C(O)/C=C(/CCc1ccc(Cl)cc1)c1ccccc1` [PS48]?
Kd ([1]; Aurora A saturated with danusertib, FIGS. 3C-3D, read-out: Kd of PS48 binding to dephosphorylated Aurora A kinase): ~85 µM; Kd ([1]; ITC, FIG. 3B, read-out: Kd of binding of PS48 to Aurora A kinase): ~46 µM; effect of PS48 on kinase activity of Aurora A incubated with TPX2 (Aurora A kinase and TPX2): inhibits kinase activity by competing off TPX2 binding; also recorded: disrupting binding of TPX2 to Aurora A kinase; binding site of PS48 on Aurora A kinase [2]: bound to the TPX2 binding site of Aurora A kinase
